According to patent US20260053861A1, “CELL COMPOSITIONS AND METHODS OF USING THE SAME” (THE REGENTS OF THE UNIVERSITY OF CALIFORNIA, priority 2022, published 2026):
Structures can show the parent of a compound that is named as a salt.

Each compound was assayed on hPSC-SCs. Settings: not given.
Cc1c(Cl)cccc1Nc1ncccc1C(=O)O.NCCCC[C@H](N)C(=O)O [Clonixin Lysinate] showed a z.score.t of 0.9603. COc1cc2c(c(OC)c1OC)-c1ccc(OC)c(=O)cc1[C@@H](NC(C)=O)CC2 [Colchicine] showed a z.score.t of −1.804. For CCN1C[C@]2(COC)CC[C@H](O)[C@@]34C5C[C@@H]6[C@@H](OC)C[C@](O)(C(CC23)C14)C5[C@H]6OC(C)=O (stereo partly drawn) [Condelphine], the z.score.t was 2.361. Compound COc1cc2cc3c4cc(OC)c(OC)cc4cc[n+]3c(C)c2cc1OC.O.[Cl-] [Coralyne chloride hydrate] has a z.score.t of −1.014. CC=CC(=O)N(CC)c1ccccc1C [Crotamiton] showed a z.score.t of −1.426. C[C@@H]1C[C@@H]([C@H](O)CC2CC(=O)NC(=O)C2)C(=O)[C@@H](C)C1 [Cycloheximide] was tested, and the z.score.t was −2.003. Work on COc1ccccc1N1CCN(CCCCNC(=O)c2ccc3ccccc3c2)CC1.Cl.Cl [DO 897/99] yielded a z.score.t of −0.4139. For COc1cccc2c1C(=O)c1c(O)c3c(c(O)c1C2=O)C[C@@](O)(C(C)=O)C[C@@H]3O[C@H]1C[C@H](N)[C@H](O)[C@H](C)O1 [Daunorubicin hydrochloride], the z.score.t was −1.999. CC(=O)N(O)CCCCCNC(=O)CCC(=O)N(O)CCCCCNC(=O)CCC(=O)N(O)CCCCCN [Deferoxamine mesylate] was tested, and the z.score.t was 0.557. Work on CC(=O)O[C@H]1CC[C@@]2(C)C(=CC[C@@H]3[C@@H]2CC[C@]2(C)C(=O)CC[C@@H]32)C1 [Dehydroisoandosterone 3-acetate] yielded a z.score.t of 0.7349. Work on CCN1C[C@]2(COC)CC[C@H](OC)[C@]34C5C[C@@H]6[C@@H](OC)C[C@@]7(OCO[C@@]7(C13)[C@@H](O)C24)C5[C@H]6OC (stereo partly drawn) [Delcorine] yielded a z.score.t of −0.9741. Work on CCN1C[C@]2(COC)CC[C@H](O)[C@]34C1[C@@](O)([C@@H](OC)[C@H]23)[C@@]1(O)C[C@H](OC)[C@H]2C[C@@H]4[C@@H]1[C@H]2OC [Delsoline] yielded a z.score.t of 1.566. CCN1C[C@]2(C)CC[C@H](OC)[C@@]34C1[C@]1(OCO[C@@]15C[C@H](OC)[C@H]1C[C@]3(O)[C@@H]5[C@H]1OC)[C@@H](OC(C)=O)[C@H]24 [Deltaline] gave a z.score.t of 0.1693. Work on CN(CCCCCCCCCCN(C)C(=O)Oc1cccc([N+](C)(C)C)c1)C(=O)Oc1cccc([N+](C)(C)C)c1 [Demecarium bromide] yielded a z.score.t of 1.211. Compound C[C@]12CC[C@H]3[C@@H](CCC4=CC(=O)CC[C@@]43C)[C@@H]1CC[C@@H]2C(=O)CO [Deoxycorticosterone] has a z.score.t of −1.303. For C[C@]12CC[C@H](O)C[C@H]1CC[C@@H]1[C@@H]2CC[C@]2(C)[C@@H](C3=CC(=O)OC3)CC[C@]12O [Digitoxigenin], the z.score.t was −2.008. With C[C@H]1O[C@@H](O[C@H]2[C@@H](O)C[C@H](O[C@H]3[C@@H](O)C[C@H](O[C@H]4CC[C@@]5(C)[C@H](CC[C@@H]6[C@@H]5C[C@@H](O)[C@]5(C)[C@@H](C7=CC(=O)OC7)CC[C@]65O)C4)O[C@@H]3C)O[C@@H]2C)C[C@H](O)[C@@H]1O [Digoxin] the z.score.t was −2.04.

Same assay, conditions: HTS viability of hPSC-SCs in the presence of 30 mM glucose; Prestwick library; Table S4
With C[C@@H]1C[C@H]2[C@@H]3C[C@H](F)C4=CC(=O)C=C[C@]4(C)[C@@]3(Cl)[C@@H](O)C[C@]2(C)[C@H]1C(=O)COC(=O)C(C)(C)C [Clocortolone pivalate] the z.score.t was −0.7388. Work on CC(C)/N=c1\cc2n(-c3ccc(Cl)cc3)c3ccccc3nc-2cc1Nc1ccc(Cl)cc1 [Clofazimine] yielded a z.score.t of −1.765. In the case of CC(C)(Oc1ccc(Cl)cc1)C(=O)O [Clofibric acid], the z.score.t is reported as −0.8317. CCN(CC)CCOc1ccc(C(=C(Cl)c2ccccc2)c2ccccc2)cc1.O=C(O)CC(O)(CC(=O)O)C(=O)O [Clomiphene citrate (Z,E)] gave a z.score.t of −1.755. In the case of CN(C)CCCN1c2ccccc2CCc2ccc(Cl)cc21 [Clomipramine hydrochloride], the z.score.t is reported as −1.637. For Clc1cccc(Cl)c1N=C1NCCN1 [Clonidine hydrochloride], the z.score.t was 1.056. With C[C@@H]1CCC[C@H](C)N1NC(=O)c1ccc(Cl)c(S(N)(=O)=O)c1 [Clopamide] the z.score.t was 0.7847. Work on Clc1ccc(C(OCCN2CCCCC2)c2ccccc2)cc1 (stereo not drawn) [Cloperastine hydrochloride] yielded a z.score.t of −1.185. C#CCN(C)CCCOc1ccc(Cl)cc1Cl [Clorgyline hydrochloride] was tested, and the z.score.t was 0.1556. For Nc1cc(C(Cl)=C(Cl)Cl)c(S(N)(=O)=O)cc1S(N)(=O)=O [Clorsulon], the z.score.t was 0.563. Compound Clc1ccccc1C(c1ccccc1)(c1ccccc1)n1ccnc1 [Clotrimazole] has a z.score.t of −1.91. Cc1onc(-c2ccccc2Cl)c1C(=O)N[C@@H]1C(=O)N2[C@@H]1SC(C)(C)[C@@H]2C(=O)O [Cloxacillin sodium salt] showed a z.score.t of 0.6255. For CN1CCN(C2=Nc3cc(Cl)ccc3Nc3ccccc32)CC1 [Clozapine], the z.score.t was 1.049. C[C@H]1[C@H]2CC[C@H]3[C@@H]4CC=C5C[C@@H](N(C)C)CC[C@]5(C)[C@H]4CC[C@]23CN1C [Conessine] was tested, and the z.score.t was 0.5822. In the case of COc1ccc(C(=O)OC2C[C@H]3CC[C@@H](C2)N3C)cc1OC.Cl (stereo partly drawn) [Convolamine hydrochloride], the z.score.t is reported as 1.345. C[C@]12C[C@H](O)[C@H]3[C@@H](CCC4=CC(=O)CC[C@@]43C)[C@@H]1CC[C@@H]2C(=O)CO [Corticosterone] was tested, and the z.score.t was −0.2486. For C[C@]12CCC(=O)C=C1CC[C@@H]1[C@@H]2C(=O)C[C@@]2(C)[C@H]1CC[C@]2(O)C(=O)CO [Cortisone], the z.score.t was 0.9568. With COC(=O)[C@H]1[C@H]2C[C@H]3c4[nH]c5ccccc5c4CCN3C[C@@H]2CC[C@@H]1O.Cl [Corynanthine hydrochloride] the z.score.t was 1.095. O=C(O)c1cc(=O)c2c(OCC(O)COc3cccc4oc(C(=O)O)cc(=O)c34)cccc2o1 [Cromolyn disodium salt] showed a z.score.t of 0.557. With CN1CCN(C(c2ccccc2)c2ccccc2)CC1 [Cyclizine hydrochloride] the z.score.t was 0.5437. In the case of CN(C)CCC=C1c2ccccc2C=Cc2ccccc21 [Cyclobenzaprine hydrochloride], the z.score.t is reported as −0.1641. NS(=O)(=O)c1cc2c(cc1Cl)NC(CC1CCCC1)NS2(=O)=O (stereo not drawn) [Cyclopenthiazide] showed a z.score.t of 2.573. In the case of CN(C)CCOC(=O)C(c1ccccc1)C1(O)CCCC1 (stereo not drawn) [Cyclopentolate hydrochloride], the z.score.t is reported as −0.5614. With CN1CCC(=C2c3ccccc3C=Cc3ccccc32)CC1 [Cyproheptadine hydrochloride] the z.score.t was 0.4486. Compound CC(=O)O[C@]1(C(C)=O)CC[C@H]2[C@@H]3C=C(Cl)C4=CC(=O)[C@@H]5C[C@@H]5[C@]4(C)[C@H]3CC[C@@]21C [Cyproterone acetate] has a z.score.t of −0.5219. Work on N[C@@H]1CONC1=O [D-cycloserine] yielded a z.score.t of 0.9162. CN(C)/N=N/c1[nH]cnc1C(N)=O [Dacarbazine] showed a z.score.t of −0.6301. C#C[C@]1(O)CC[C@H]2[C@@H]3CCC4=Cc5oncc5C[C@]4(C)[C@H]3CC[C@@]21C [Danazol] was tested, and the z.score.t was 0.1149. Compound O=C1CN(/N=C/c2ccc(-c3ccc([N+](=O)[O-])cc3)o2)C(O)=N1 [Dantrolene sodium salt] has a z.score.t of 1.306. With Nc1ccc(S(=O)(=O)c2ccc(N)cc2)cc1 [Dapsone] the z.score.t was 1.024. Work on N=C(N)N1CCc2ccccc2C1 [Debrisoquin sulfate] yielded a z.score.t of 0.6578. C[N+](C)(C)CCCCCCCCCC[N+](C)(C)C [Decamethonium bromide] gave a z.score.t of −1.558. With C[C@H](CCC(=O)O)[C@H]1CC[C@H]2[C@@H]3C(=O)C[C@@H]4CC(=O)CC[C@]4(C)[C@H]3CC(=O)[C@]12C [Dehydrocholic acid] the z.score.t was 1.472. For CN(C)[C@@H]1C(O)=C(C(N)=O)C(=O)[C@@]2(O)C(O)=C3C(=O)c4c(O)ccc(Cl)c4[C@@H](O)[C@H]3C[C@@H]12 [Demeclocycline hydrochloride], the z.score.t was 0.4318. CC[N+](CC)(CC(=O)Nc1c(C)cccc1C)Cc1ccccc1 [Denatonium benzoate] gave a z.score.t of −1.472. In the case of Cc1cc(N)c2ccccc2[n+]1CCCCCCCCCC[n+]1c(C)cc(N)c2ccccc21 [Dequalinium dichloride], the z.score.t is reported as 0.5046. Compound CNCCCN1c2ccccc2CCc2ccccc21 [Desipramine hydrochloride] has a z.score.t of −1.014. CC(=O)OCC(=O)[C@@]1(O)[C@H](C)C[C@H]2[C@@H]3CCC4=CC(=O)C=C[C@]4(C)[C@@]3(F)[C@@H](O)C[C@@]21C [Dexamethasone acetate] was tested, and the z.score.t was 0.4486. CC1=NS(=O)(=O)c2cc(Cl)ccc2N1 [Diazoxide] gave a z.score.t of 0.4626. With CCCCOc1cc(C(=O)NCCN(CC)CC)c2ccccc2n1 [Dibucaine] the z.score.t was −1.214. NS(=O)(=O)c1cc(Cl)c(Cl)c(S(N)(=O)=O)c1 [Dichlorphenamide] gave a z.score.t of −0.8317. O=C(O)Cc1ccccc1Nc1c(Cl)cccc1Cl [Diclofenac sodium] gave a z.score.t of 0.563. Cc1onc(-c2c(Cl)cccc2Cl)c1C(=O)N[C@@H]1C(=O)N2[C@@H]1SC(C)(C)[C@@H]2C(=O)O [Dicloxacillin sodium salt] was tested, and the z.score.t was 1.942. Work on O=c1oc2ccccc2c(O)c1Cc1c(O)c2ccccc2oc1=O [Dicumarol] yielded a z.score.t of −0.3242. Compound CCN(CC)CCOC(=O)C1(C2CCCCC2)CCCCC1 [Dicyclomine hydrochloride] has a z.score.t of −0.2865. O=c1[nH]cnc2c1ncn2[C@H]1CC[C@@H](CO)O1 [Didanosine] gave a z.score.t of −0.07933. With C/C=C(/C(=C/C)c1ccc(O)cc1)c1ccc(O)cc1 [Dienestrol] the z.score.t was −1.123. With CCN(CC)C(=O)N1CCN(C)CC1 [Diethylcarbamazine citrate] the z.score.t was 0.378. For CC/C(=C(/CC)c1ccc(O)cc1)c1ccc(O)cc1 [Diethylstilbestrol], the z.score.t was 1.624. With CC(=O)OCC(=O)[C@@]1(OC(C)=O)[C@@H](C)C[C@H]2[C@@H]3C[C@H](F)C4=CC(=O)C=C[C@]4(C)[C@@]3(F)[C@@H](O)C[C@@]21C [Diflorasone Diacetate] the z.score.t was 1.72. With O=C(O)c1cc(-c2ccc(F)cc2F)ccc1O [Diflunisal] the z.score.t was 0.7162. C[C@]12CC[C@H](O)C[C@H]1CC[C@@H]1[C@@H]2C[C@@H](O)[C@]2(C)[C@@H](C3=CC(=O)OC3)CC[C@]12O [Digoxigenin] gave a z.score.t of −2.387.
